These results are taken from US20050261298A1, “Methods of treating conditions associated with an Edg-7 receptor” (priority 2002, published 2005).

The target in data set [1] is T1, Edg-4 (Homo sapiens, UniProt Q9HBW0). In words: Calcium mobilization assay (FLIPR), agonist stimulation of calcium increase. It is filed as cell-based. The settings on record: HTC cells expressing Edg-4; for stimulation of calcium increases, Edg-4: concentrations as high as 25 µM. Background: A change in cytosolic calcium serves as a functional read-out for many receptors and channels.
Target sequence in this assay (Q9HBW0 1-340 limits assumed): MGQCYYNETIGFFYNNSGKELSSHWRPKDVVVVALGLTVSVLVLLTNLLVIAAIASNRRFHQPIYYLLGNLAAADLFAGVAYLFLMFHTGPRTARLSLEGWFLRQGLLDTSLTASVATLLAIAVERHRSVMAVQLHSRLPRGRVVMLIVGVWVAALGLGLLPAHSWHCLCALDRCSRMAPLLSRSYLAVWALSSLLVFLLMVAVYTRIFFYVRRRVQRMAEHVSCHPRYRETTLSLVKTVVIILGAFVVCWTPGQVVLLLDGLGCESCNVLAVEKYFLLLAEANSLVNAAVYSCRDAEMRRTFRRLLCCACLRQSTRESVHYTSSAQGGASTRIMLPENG

Data set [2] has as its target T2, human Edg 7 receptors (Homo sapiens, UniProt Q9UBY5).
T2 construct: expressed in transfected cells
T2 sequence (Q9UBY5 1-353): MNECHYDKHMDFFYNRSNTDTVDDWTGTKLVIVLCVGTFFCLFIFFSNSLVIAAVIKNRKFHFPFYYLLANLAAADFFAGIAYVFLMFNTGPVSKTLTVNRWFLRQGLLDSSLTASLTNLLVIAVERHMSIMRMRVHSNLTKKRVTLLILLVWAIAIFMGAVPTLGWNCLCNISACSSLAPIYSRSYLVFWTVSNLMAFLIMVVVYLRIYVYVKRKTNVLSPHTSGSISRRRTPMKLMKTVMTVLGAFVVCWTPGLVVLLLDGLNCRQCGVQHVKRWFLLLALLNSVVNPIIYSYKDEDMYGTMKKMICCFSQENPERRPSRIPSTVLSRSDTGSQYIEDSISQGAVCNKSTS
The description is as above. It is filed as cell-based. The settings on record: for EC50 / specific activation of the Edg-7 receptor: HTC cells expressing human Edg 7; for Fold Selectivity: agonist selectivity for Edg-7 relative to other Edg receptors and null cells. The protocol:
(§1) The compounds were tested in HTC cells expressing human Edg 7 receptors. […] The compounds are tested in this recombinant system first, and subsequently tested in cell lines expressing Edg-7 (in addition to other Edg receptors).
(§2) LPA receptors such as Edg-7, couple to calcium effector pathways, and result in increases in intracellular calcium following receptor activation (An, 1998, J. Cell. Biochem Supp. 30-31:147-157). This biological response lends itself to a very efficient, high-throughput screen using a Fluorescence Imaging Plate Reader (FLIPR; Molecular Devices, Sunnyvale, Calif.). The FLIPR system is a real-time, cell-based assay system with continuous fluorescence detection using a cooled CCD camera. The FLIPR system was used to developing an Edg-7 receptor screen. Rat hepatoma cells stably expressing Edg-7 receptor were plated on 384-well plates and loaded with a calcium dye loading kit (Molecular Devices, Sunnyvale, Calif.) for 1 hour at room temperature. Cells were then placed on the FLIPR^384 (Molecular Devices, Sunnyvale, Calif.) and excited by an argon laser at […]. The data for the entire 384-well plate was updated every second. An integrated robotic pipettor allowed for simultaneous compound addition into each individual well in the plate

The target of data set [3] is T3, Edg-5 (Homo sapiens, UniProt O95136).
T3 construct: expressed in transfected cells; host or cells: HTC rat hepatoma cells
The data set is described as above. It counts as cell-based. The settings on record: HTC cells expressing Edg-5; for stimulation of calcium increases, Edg-5: concentrations as high as 25 µM.

In data set [4] the target is T4, Edg-1 (Homo sapiens, UniProt P21453).
T4 construct: expressed in transfected cells; host or cells: HTC rat hepatoma cells
Described as above. It counts as cell-based. The settings on record: HTC cells expressing Edg-1; for stimulation of calcium increases, Edg-1: concentrations as high as 25 µM.

Data set [5] has as its target T5, Edg-6 (Homo sapiens, UniProt O95977).
T5 construct: expressed in transfected cells; host or cells: HTC rat hepatoma cells
T5 sequence (O95977 1-384): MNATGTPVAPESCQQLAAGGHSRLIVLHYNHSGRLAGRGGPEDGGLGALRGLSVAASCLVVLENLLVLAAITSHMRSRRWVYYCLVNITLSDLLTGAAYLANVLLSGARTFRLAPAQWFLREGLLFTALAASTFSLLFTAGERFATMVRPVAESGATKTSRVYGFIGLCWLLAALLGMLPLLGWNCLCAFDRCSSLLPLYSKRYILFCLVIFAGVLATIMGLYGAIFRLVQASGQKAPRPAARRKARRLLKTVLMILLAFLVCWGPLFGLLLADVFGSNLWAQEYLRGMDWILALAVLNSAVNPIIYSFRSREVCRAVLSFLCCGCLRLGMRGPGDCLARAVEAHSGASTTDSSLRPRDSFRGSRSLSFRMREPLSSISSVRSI
Described as above. The settings on record: HTC cells expressing Edg-6; for stimulation of calcium increases, Edg-6: concentrations as high as 25 µM. It is filed as cell-based.

The target in data set [6] is T6, Edg-3 (Homo sapiens, UniProt Q99500).
T6 construct: expressed in transfected cells; host or cells: HTC rat hepatoma cells
The description is as above. It is filed as cell-based. The settings on record: HTC cells expressing Edg-3; for stimulation of calcium increases, Edg-3: concentrations as high as 25 µM.

Data set [7] deals with T7, Edg-8 (Homo sapiens, UniProt Q9H228).
T7 construct: expressed in transfected cells; host or cells: HTC rat hepatoma cells
The description is as above. It is filed as cell-based. The settings on record: HTC cells expressing Edg-8; for stimulation of calcium increases, Edg-8: concentrations as high as 25 µM.

Data set [8] concerns the target T8, Edg-2 (Homo sapiens, UniProt Q92633).
T8 construct: expressed in transfected cells; host or cells: HTC rat hepatoma cells
Kind of data set: Calcium mobilization assay (FLIPR), agonist stimulation of calcium increase. It is filed as cell-based. The settings on record: HTC cells expressing Edg-2; for stimulation of calcium increases, Edg-2: concentrations as high as 25 µM.

In another data set the test system is untransfected HTC cells. In words: Calcium mobilization assay (FLIPR), agonist stimulation in null cells. It is filed as cell-based, rat. The settings on record: for EC50: Rattus norvegicus; for stimulation of calcium increases, untransfected HTC cells: concentrations as high as 25 µM.
The target of data set [9] is T1, Edg-4. Kind of data set: Calcium mobilization assay (FLIPR), inhibition of LPA-stimulated calcium increase. It counts as cell-based. The settings on record: HTC cells expressing Edg-4.
Target sequence in this assay (Q9HBW0 1-344 limits assumed): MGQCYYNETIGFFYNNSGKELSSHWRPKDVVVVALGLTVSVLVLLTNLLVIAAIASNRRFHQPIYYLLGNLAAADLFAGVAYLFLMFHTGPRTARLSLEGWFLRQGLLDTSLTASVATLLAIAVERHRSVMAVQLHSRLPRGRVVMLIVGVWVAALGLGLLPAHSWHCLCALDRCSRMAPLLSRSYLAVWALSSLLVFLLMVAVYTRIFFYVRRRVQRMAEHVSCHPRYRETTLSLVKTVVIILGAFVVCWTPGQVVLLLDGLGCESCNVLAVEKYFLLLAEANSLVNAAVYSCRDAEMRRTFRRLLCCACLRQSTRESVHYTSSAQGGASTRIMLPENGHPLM
Data set [10] deals with T4, Edg-1. Kind of data set: Calcium mobilization assay (FLIPR), inhibition of S1P-stimulated calcium increase. It counts as cell-based. The settings on record: HTC cells expressing Edg-1.
In data set [11] the target is T3, Edg-5. The description is as above. It counts as cell-based. The settings on record: HTC cells expressing Edg-5.
Data set [12] deals with T2, human Edg 7 receptors. In words: Calcium mobilization assay (FLIPR), inhibition of LPA response. It is filed as cell-based. The settings on record: for IC50: HTC cells expressing human Edg 7; for Fold Selectivity: inhibitory selectivity for Edg-7 relative to other Edg receptors. The protocol:
as §1
The radioligand binding assays were conducted as described in Section 6.15 (Example 15).
as §2

The target in data set [13] is T8, Edg-2. Kind of data set: Calcium mobilization assay (FLIPR), inhibition of LPA-stimulated calcium increase. It counts as cell-based. The settings on record: HTC cells expressing Edg-2.
For data set [14], the target named is T5, Edg-6. Kind of data set: Calcium mobilization assay (FLIPR), inhibition of S1P-stimulated calcium increase. It counts as cell-based. The settings on record: HTC cells expressing Edg-6.
In data set [15] the target is T7, Edg-8. Described as above. The settings on record: HTC cells expressing Edg-8. It is filed as cell-based.
Data set [16] addresses T6, Edg-3. The description is as above. It is filed as cell-based. The settings on record: HTC cells expressing Edg-3.

T6 sequence (Q99500 whole entry): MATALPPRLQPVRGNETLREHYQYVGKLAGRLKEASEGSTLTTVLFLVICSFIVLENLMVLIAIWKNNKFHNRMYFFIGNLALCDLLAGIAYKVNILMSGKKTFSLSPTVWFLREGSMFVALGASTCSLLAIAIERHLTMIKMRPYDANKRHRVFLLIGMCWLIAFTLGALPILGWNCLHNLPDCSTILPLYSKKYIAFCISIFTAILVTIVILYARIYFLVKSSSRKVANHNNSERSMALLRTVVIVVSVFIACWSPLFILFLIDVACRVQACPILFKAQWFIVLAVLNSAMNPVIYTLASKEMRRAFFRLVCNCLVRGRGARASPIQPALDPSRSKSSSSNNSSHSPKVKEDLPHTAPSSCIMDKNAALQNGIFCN
T7 sequence (Q9H228 whole entry): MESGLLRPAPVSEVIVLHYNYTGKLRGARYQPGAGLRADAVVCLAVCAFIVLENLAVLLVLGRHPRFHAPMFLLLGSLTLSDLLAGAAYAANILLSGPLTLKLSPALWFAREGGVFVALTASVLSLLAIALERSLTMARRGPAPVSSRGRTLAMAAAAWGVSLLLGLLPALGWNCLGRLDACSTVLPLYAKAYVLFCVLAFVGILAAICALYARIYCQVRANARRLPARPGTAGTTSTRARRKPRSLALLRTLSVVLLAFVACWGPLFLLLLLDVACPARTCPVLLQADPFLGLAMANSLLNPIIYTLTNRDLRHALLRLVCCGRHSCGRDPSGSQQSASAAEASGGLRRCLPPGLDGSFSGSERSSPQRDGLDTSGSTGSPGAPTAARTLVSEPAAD
T8 sequence (Q92633 whole entry): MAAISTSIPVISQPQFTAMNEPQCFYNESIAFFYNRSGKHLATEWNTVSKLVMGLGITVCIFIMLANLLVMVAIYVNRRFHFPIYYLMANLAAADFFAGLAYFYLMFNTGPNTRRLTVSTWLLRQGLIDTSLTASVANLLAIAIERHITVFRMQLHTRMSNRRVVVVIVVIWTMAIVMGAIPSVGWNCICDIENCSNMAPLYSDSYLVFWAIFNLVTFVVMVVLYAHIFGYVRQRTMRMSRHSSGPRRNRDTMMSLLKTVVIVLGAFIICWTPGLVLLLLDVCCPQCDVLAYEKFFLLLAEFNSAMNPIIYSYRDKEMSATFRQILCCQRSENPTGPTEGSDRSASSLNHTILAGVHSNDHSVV
T4 sequence (P21453 whole entry): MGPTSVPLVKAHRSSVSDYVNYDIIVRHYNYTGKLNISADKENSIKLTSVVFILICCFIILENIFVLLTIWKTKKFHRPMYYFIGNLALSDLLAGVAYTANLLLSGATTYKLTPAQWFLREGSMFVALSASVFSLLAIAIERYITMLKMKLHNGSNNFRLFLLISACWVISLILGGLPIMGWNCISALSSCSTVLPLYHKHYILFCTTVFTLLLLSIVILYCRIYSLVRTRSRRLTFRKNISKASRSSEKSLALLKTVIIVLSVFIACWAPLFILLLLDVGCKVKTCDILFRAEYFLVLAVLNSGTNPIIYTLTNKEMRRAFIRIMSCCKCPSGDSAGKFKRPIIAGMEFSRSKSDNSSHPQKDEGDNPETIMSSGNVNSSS
T3 sequence (O95136 whole entry): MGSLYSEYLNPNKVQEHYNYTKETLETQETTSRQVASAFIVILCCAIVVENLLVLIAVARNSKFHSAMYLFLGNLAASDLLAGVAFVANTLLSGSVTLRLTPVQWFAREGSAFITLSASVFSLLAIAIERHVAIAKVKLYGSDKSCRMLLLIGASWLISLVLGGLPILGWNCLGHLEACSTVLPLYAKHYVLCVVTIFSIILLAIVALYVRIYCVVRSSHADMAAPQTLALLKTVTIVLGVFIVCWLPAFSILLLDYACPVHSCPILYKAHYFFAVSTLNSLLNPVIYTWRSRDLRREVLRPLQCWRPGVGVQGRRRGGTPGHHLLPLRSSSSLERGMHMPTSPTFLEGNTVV

A word on the EC50: it is the concentration that produces a half-maximal response. As a reminder, the melting point is the temperature of the solid-liquid transition. In turn, `Cc1cc(C)c2c(c1)Cc1ccccc1S2(=O)=O` [Compound 133, 2,4-Dimethyl-9H-thioxanthene 10,10-dioxide] had a melting point of 103 to 105 °C. Moreover, at Edg-4 [1], the EC50 was above 25 µM and the “stimulation of calcium increases, Edg-4” value is recorded as “did not stimulate”. In addition, at human Edg 7 receptors [2], the EC50 is 1.61 µM, the “specific activation of the Edg-7 receptor” value (“specific activation” for short) is listed as “specifically activate” and the “Fold Selectivity” value is above 15.5 Fold. Also, on Edg-5 [3], the EC50 was above 25 µM and the “stimulation of calcium increases, Edg-5” value is “did not stimulate”. For the same compound, at Edg-1 [4], the EC50 is above 25 µM and the “stimulation of calcium increases, Edg-1” value was “did not stimulate”. At Edg-6 [5], the EC50 was above 25 µM and the “stimulation of calcium increases, Edg-6” value is listed as “did not stimulate”. Besides, at Edg-3 [6], the half-maximal effective concentration (EC50) is above 25 µM and the “stimulation of calcium increases, Edg-3” value is “did not stimulate”. At Edg-8 [7], the concentration giving a half-maximal response (EC50) is above 25 µM and the “stimulation of calcium increases, Edg-8” value was “did not stimulate”. In addition, at Edg-2 [8], the EC50 is above 25 µM and the “stimulation of calcium increases, Edg-2” value was “did not stimulate”. For the same compound, in the data set on untransfected HTC cells, the EC50 was above 25 µM and the “stimulation of calcium increases, untransfected HTC cells” value is given as “did not stimulate”.

Usually IC50 stands for the concentration that inhibits the measured activity by half. For the compound `Cc1ccc(S(=O)(=O)N=C2NC(=O)/C(=C3/C(=O)Nc4ccccc43)S2)cc1` [Compound 105, 4-Methyl-N-[4-oxo-5-(2-oxo-1,2-dihydroindol-3-ylidene)thiazolidin-2-ylidene]-benzenesulfonamide], the melting point was 320 °C (dec.). Moreover, the IC50 at Edg-4 [9] is above 20 µM. Further, the IC50 on Edg-1 [10] is above 20 µM. At Edg-5 [11], the IC50 was above 20 µM. The “selective inhibition of the Edg-7 receptor (FIG. 1, FIG. 2)” value on human Edg 7 receptors [12] (HTC cells expressing Edg-7) is given as “exhibited selectivity”. For the same compound, on human Edg 7 receptors [12], the IC50 came out at 0.52 µM and the “Fold Selectivity” value is given as above 38.5 Fold. For the same compound, at Edg-2 [13], the IC50 was above 20 µM. The IC50 on Edg-6 [14] was above 20 µM. Also, at Edg-8 [15], the IC50 was above 20 µM. The IC50 on Edg-3 [16] is above 20 µM.

In turn, `COc1ccc(-c2nc3ccc(C(=O)O)cc3nc2-c2ccc(OC)cc2)cc1` [Compound 129, 2,3-bis-(4-Methoxyphenyl) quinoxaline-6-carboxylic acid] displayed a melting point of 284 to 285 °C. For the same compound, on Edg-4 [1], the EC50 is above 25 µM and the “stimulation of calcium increases, Edg-4” value is reported as “did not stimulate”. For the same compound, at human Edg 7 receptors [2], the EC50 was found to be 0.37 µM, the “specific activation” value is listed as “specifically activate” and the “Fold Selectivity” value was above 68 Fold. On Edg-5 [3], the 50% effective concentration (EC50) is above 25 µM and the “stimulation of calcium increases, Edg-5” value is recorded as “did not stimulate”. Besides, on Edg-1 [4], the EC50 was above 25 µM and the “stimulation of calcium increases, Edg-1” value is “did not stimulate”. In addition, on Edg-6 [5], the EC50 was above 25 µM and the “stimulation of calcium increases, Edg-6” value is reported as “did not stimulate”. Besides, on Edg-3 [6], the EC50 is above 25 µM and the “stimulation of calcium increases, Edg-3” value is listed as “did not stimulate”. On Edg-8 [7], the EC50 was above 25 µM and the “stimulation of calcium increases, Edg-8” value is “did not stimulate”. Further, on Edg-2 [8], the EC50 is above 25 µM and the “stimulation of calcium increases, Edg-2” value is on record as “did not stimulate”. In addition, in the data set with untransfected HTC cells, the EC50 was above 25 µM and the “stimulation of calcium increases, untransfected HTC cells” value is recorded as “did not stimulate”.

In the case of `CCCCCC(CCCCC)=N/N=C1\NC(=O)C(CC(=O)O)S1` (stereo not drawn) [Compound 127, 4-Oxo-2-[(1-pentylhexylidene)hydrazono]thiazolidin-5-ylacetic acid], the melting point is 134 to 135 °C. Besides, on Edg-4 [1], the EC50 was above 25 µM and the “stimulation of calcium increases, Edg-4” value is on record as “did not stimulate”. Besides, on human Edg 7 receptors [2], the EC50 was found to be 0.23 µM, the “specific activation” value is on record as “specifically activate” and the “Fold Selectivity” value is given as above 109 Fold. Also, on Edg-5 [3], the EC50 is above 25 µM and the “stimulation of calcium increases, Edg-5” value is on record as “did not stimulate”. At Edg-1 [4], the EC50 is above 25 µM and the “stimulation of calcium increases, Edg-1” value is reported as “did not stimulate”. Further, on Edg-6 [5], the EC50 is above 25 µM and the “stimulation of calcium increases, Edg-6” value is on record as “did not stimulate”. In addition, at Edg-3 [6], the EC50 is above 25 µM and the “stimulation of calcium increases, Edg-3” value was “did not stimulate”. Moreover, on Edg-8 [7], the EC50 is above 25 µM and the “stimulation of calcium increases, Edg-8” value is on record as “did not stimulate”. For the same compound, on Edg-2 [8], the concentration for a half-maximal effect (EC50) is above 25 µM and the “stimulation of calcium increases, Edg-2” value is “did not stimulate”. For the same compound, in the data set with untransfected HTC cells, the EC50 is above 25 µM and the “stimulation of calcium increases, untransfected HTC cells” value is given as “did not stimulate”.

Regarding `O=C(O)COc1ccc(Br)cc1/C=C1\S/C(=N\c2ccc(Cl)cc2)NC1=O` (racemic) [Compound 107, 4-Bromo-2-[2-(4-chlorophenylimino)-4-oxothiazolidin-5-ylidenemethyl]phenoxyacetic acid], the melting point was 272 °C (dec.). On Edg-4 [9], the IC50 was above 20 µM. The IC50 on Edg-1 [10] was above 20 µM. Also, the IC50 on Edg-5 [11] is above 20 µM. Further, on human Edg 7 receptors [12], the IC50 was determined as 7.73 µM and the “Fold Selectivity” value is above 2.6 Fold. Moreover, the IC50 at Edg-2 [13] is above 20 µM. In addition, on Edg-6 [14], the IC50 was above 20 µM. The IC50 at Edg-8 [15] was above 20 µM. The IC50 at Edg-3 [16] is above 20 µM.
